Experimental data taken from patent publication US11339193B2, “CDP protein secretion inhibitors” (KEZAR LIFE SCIENCES, priority 2018, dated 2022).
Read-outs that look alike come from different tables or passages of the source. Numbered stars: 1 amine (or outer) side, 2 acyl side, 3 side chain; on linkers, the order of the positions; unused ones are H or OH. Square brackets hold non-standard residues; d marks the D form. Peptide text beside a SMILES is read from it. NMeAla(5-Cl-benzothien-3-yl) = CN[C@@H](Cc1csc2ccc(Cl)cc12)C(=O)O; X14 = CC#CCn1cc(C[C@@H](C(=O)[*:2])N(C)[*:1])c2ccccc21; X15 = CCn1cc(C[C@@H](C(=O)[*:2])N(C)[*:1])c2ccccc21; X16 = CN([C@@H](Cc1csc2c(Cl)cccc12)C(=O)[*:2])[*:1]; Ala(1-cyclohexenyl) = N[C@@H](CC1=CCCCC1)C(=O)O; Butanoyl(2R-oxy,4-CN) = N#CCC[C@@H](O)C(=O)O; NMePhe(4-F) = CN[C@@H](Cc1ccc(F)cc1)C(=O)O; X28 = CCCC[C@H](C)C[C@H](N[*:1])C(=O)[*:2]; Abu(4,4,4-F3) = N[C@@H](CC(F)(F)F)C(=O)O; NMeL = CN[C@@H](CC(C)C)C(=O)O; NMeA = CN[C@@H](C)C(=O)O; dLac = C[C@@H](O)C(=O)O

What was measured:
Type in all cases: cell-based
[1] = test system: VCAMss+10aa/Gaussia Luciferase; experiment: VCAM-ss-Gluc assay (constitutively active or Dox induced); settings: Flp-In 293 T-REx cells, 24 hours
Protocol: Assays Constitutively Active VCAM-ss-Gluc Assay
(§1) Transfected cells were selected for resistance to the selectable markers Hygromycin and Blasticidin to create a stable cell line that constitutively expressed the VCAMss+ 10aa/Gaussia Luciferase fusion protein. The day before assay, cells were trypsinized and plated in 384-well tissue culture plates. The next day, culture media was removed from the wells and replaced with fresh media. Compound dilutions in DMSO/media were added to the wells and incubated at 37° C., 5% CO2.
Dox Induced VCAM-ss-Gluc Assay
(§2) Transfected cells were selected for resistance to the selectable markers Hygromycin and Blasticidin to create a stable cell line that contained the VCAMss+10aa/Gaussia Luciferase cDNA insert whose expression was regulated under the T-REx™ system. The day before assay, cells were trypsinized and plated in 384-well tissue culture plates. The next day, compound dilutions in DMSO/media containing doxycycline were added to the wells and incubated at 37° C., 5% CO2.

[2] = test system: JJN3 plasma cell leukemia cell line; experiment: JJN-3 assay (Alamar blue); settings: Homo sapiens, 72 h
Protocol: BT474 is a human breast tumor cell line. JJN3 is a human plasma cell leukemia cell line. […] Cells were seeded at 100 000 cells/mL. Aliquots of 5000 cells (50 μL) were added to each well in black, clear bottom 96-well plates. Compounds or control (50 uL of 1% DMSO in cell culture medium) were added to the cells to the indicated final concentrations and cells were incubated for 72 h (unless otherwise specified). After incubation was complete, Alamar blue (10 uL of a 1 mg/mL solution) was added to each well and plates were incubated for 5 h. Fluorescence was then measured (excitation 545 nm, emission 590 nm) and is reported as […] normalized to DMSO control.

[3] = test system: PD1-ss+10aa/Gaussia Luciferase; experiment: Dox induced PD1-ss-Gluc assay; settings: read-out: PD1ss Gluc IC50
In short: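 Stable Flp-In 293 T-REx line expressing doxycycline-inducible Gaussia luciferase fused to the PD1 signal sequence plus 10 amino acids. Cells plated the day before, then exposed to compound dilutions in DMSO/media containing doxycycline at 37 °C, 5% CO2.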

[4] = test system: TNFα-FL/Gaussia Luciferase; experiment: Dox induced TNFα-FL-Gluc assay; settings: read-out: TNFa FL Gluc IC50
In short: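 Stable Flp-In 293 T-REx line expressing full-length TNFα (aa 1-233) fused at its C-terminus to Gaussia luciferase under doxycycline-inducible control. Cells plated the day before, then given compound dilutions in DMSO/media containing doxycycline and incubated at 37 °C, 5% CO2.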

[5] = test system: NCI-H929 multiple myeloma cell line; experiment: H929 assay (cell viability, Celltiter-Glo); settings: Homo sapiens, NCI-H929, read-out: H929 EC50
In short: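 Cells plated in RPMI 1640 with 10% FBS and 2 mM glutamine, treated with compound dilutions in DMSO/media. Incubation 48 h at 37° C, 5% CO2. Viability from luciferase luminescence signal.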

[6] = test system: Prl-ss+10aa/Gaussia Luciferase; experiment: Prl-ss-Gluc assay (constitutively active or 24 hr Dox inducible); settings: read-out: Prl IC50
Text: Constitutively Active Prl-ss-Gluc Assay
as §1, with “Flp-In 293 T-REx™ cells were transfected with pcDNA™5/FRT plasmid inserted with cDNA encoding Gaussia Luciferase fused to the 3′ end of cDNA encoding Prl signal sequence plus 10 amino acids (N-[…]-C) (SEQ ID NO:4). Transfected” for “Transfected”, “Prlss+10aa/Gaussia” for “VCAMss+ 10aa/Gaussia”
24 hr Dox Inducible Prl-ss-Gluc Assay
as §2, with “Flp-In 293 T-REx™ cells were transfected with pcDNA™5/FRT/TO plasmid inserted with cDNA encoding Gaussia Luciferase fused to the 3′ end of cDNA encoding Prl signal sequence plus 10 amino acids (N-[…]-C) (SEQ ID NO:5). Transfected” for “Transfected”, “Prl-ss+10aa/Gaussia” for “VCAMss+10aa/Gaussia”

[7] = test system: HER3ss-Gluc; experiment: HER3ss assay; settings: HEK-293T T-rex cells, transient transfection, doxycycline, 24 h; read-out: HER3 ss IC50
Protocol: The mature domain of secreted luciferase from Gaussia princeps (GLuc) was cloned into pcDNA5/FRT/TO. The signal sequence plus four amino acids of the mature domain from HER3 ([…]) (SEQ ID NO:8) were cloned upstream of GLuc mature domain and used in transient transfection experiment. HEK-293T T-rex cells were cultured in Dulbecco's modified Eagle's medium with 10% FBS at 5% CO2. Cells were plated 1×10e6 cells per well in a 6-well plate and incubated for 6 h. Cells were transiently transfected with HER3ss-Gluc using Lipofectamine 2000 (Invitrogen). After overnight incubation, transfected cells were replated in a clear-bottomed, black 96-well plate at a density of 20,000 cells per well. Six hours after plating, the cells were treated with doxycycline (1 μg/ml) and increasing concentrations of the indicated compounds for 24 h. Secreted luciferase in the conditioned media was quantified by luminescence using the BioLux Gaussia Luciferase Assay Kit (New England Biolabs, Ipswich, Mass., USA) and a SpectraMax M5 plate reader (Molecular Devices).

[8] = test system: U266B1 multiple myeloma cell line; experiment: U266 assay (cell viability, Celltiter-Glo); settings: Homo sapiens, U-266
Protocol: Cells were plated in 384-well tissue culture plates and treated with compound dilutions in DMSO/media. Plates were incubated at 37° C., 5% CO2 for 48 hours. After 48 hours, Celltiter-Glo@ (Promega) was added to each well and luciferase signal was quantified using Tecan Infinite M1000 Pro for cell viability determination.

[9] = Flp-In 293 T-REx cells, doxycycline, 24 hours
[10] = Flp-In 293 T-REx cells, 24 hours

| IC50 [1] [nM] | EC50 [2] [nM] | IC50 [3, 9] [nM] | IC50 [4, 9] [nM] | EC50 ([5]; I.A.) [µM] | IC50 ([6]; I.A.) [nM] | IC50 [7] [nM] | EC50 ([8]; I.A.) [nM] | IC50 ([3]; I.A.) [nM] | IC50 ([4]; I.A.) [nM] | EC50 ([5]; 48 hours, cell viability) [µM] | IC50 [6, 10] [nM] | EC50 ([5]; 48 hours, cell viability, μM) [µM] | EC50 ([8]; 48 hours, cell viability) [nM] | Compound |
| --- | --- | --- | --- | --- | --- | --- | --- | --- | --- | --- | --- | --- | --- | --- |
| 1700 | – | – | – | – | – | – | – | – | – | – | – | – | – | CCCC[C@H](C)C[C@@H]1NC(=O)[C@H](Cc2ccc(F)cc2)N(C)C(=O)[C@H](CC(C)C)NC(=O)[C@H](CC(C)C)N(C)C(=O)[C@H](CC(C)C)NC(=O)[C@@H](C)OC(=O)[C@H](C)N(C)C1=O [C-69] (cyclo(L[NMeL]L[NMePhe(4-F)][X28][NMeA][dLac])) |
| – | 14200 | – | – | – | – | – | – | – | – | – | – | – | – | CC(C)C[C@@H]1NC(=O)[C@H](Cc2cn(Cc3ccc(F)cc3)c3ccccc23)N(C)C(=O)[C@H](CC(C)C)NC(=O)[C@H](CC(C)C)N(C)C(=O)[C@H](CC(C)C)NC(=O)[C@@H](C)OC(=O)[C@H](C)N(C)C1=O [C-30] (HELM PEPTIDE1{L.[meA].[C[C@@H](O[*:1])C(=O)[*:2]].L.[meL].L.[CN([C@@H](Cc1cn(Cc2ccc(F)cc2)c2ccccc12)C(=O)[*:2])[*:1]]}$PEPTIDE1,PEPTIDE1,1:R1-7:R2$$$V2.0) |
| – | – | 520 | 2880 | > 25 | > 25000 | 38 | > 25000 | – | – | – | – | – | – | CC(C)C[C@@H]1NC(=O)[C@H](Cc2csc3ccc(Cl)cc23)N(C)C(=O)[C@H](CC(F)(F)F)NC(=O)[C@H](CC(C)C)N(C)C(=O)[C@H](CC(F)(F)F)NC(=O)[C@@H](CCC#N)OC(=O)[C@H](C)N(C)C1=O [C-90] (cyclo(L[NMeA][Butanoyl(2R-oxy,4-CN)][Abu(4,4,4-F3)][NMeL][Abu(4,4,4-F3)][NMeAla(5-Cl-benzothien-3-yl)])) |
| – | – | – | – | > 25 | > 25000 | 11 | > 25000 | > 25000 | > 25000 | – | – | – | – | CC(C)C[C@@H]1NC(=O)[C@H](Cc2csc3ccc(Cl)cc23)N(C)C(=O)[C@H](CC2=CCCCC2)NC(=O)[C@H](CC(C)C)N(C)C(=O)[C@H](CC2=CCCCC2)NC(=O)[C@@H](CCC#N)OC(=O)[C@H](C)N(C)C1=O [C-87] (cyclo(L[NMeA][Butanoyl(2R-oxy,4-CN)][Ala(1-cyclohexenyl)][NMeL][Ala(1-cyclohexenyl)][NMeAla(5-Cl-benzothien-3-yl)])) |
| – | – | 425 | 1240 | – | – | 74 | > 25000 | – | – | 6.05 | 19300 | – | – | CC(C)C[C@@H]1NC(=O)[C@H](Cc2csc3c(Cl)cccc23)N(C)C(=O)[C@H](CC(C)C)NC(=O)[C@H](CC(C)C)N(C)C(=O)[C@H](CC(F)(F)F)NC(=O)[C@@H](CCC#N)OC(=O)[C@H](C)N(C)C1=O [C-94] (cyclo(L[NMeA][Butanoyl(2R-oxy,4-CN)][Abu(4,4,4-F3)][NMeL]L[X16])) |
| – | – | 709 | – | – | > 25000 | 6 | > 25000 | – | > 25000 | – | – | > 20 | – | CC(C)C[C@@H]1NC(=O)[C@H](Cc2csc3ccc(Cl)cc23)N(C)C(=O)[C@H](CC2=CCCCC2)NC(=O)[C@H](CC(C)C)N(C)C(=O)[C@H](CC(F)(F)F)NC(=O)[C@@H](CCC#N)OC(=O)[C@H](C)N(C)C1=O [C-97] (cyclo(L[NMeA][Butanoyl(2R-oxy,4-CN)][Abu(4,4,4-F3)][NMeL][Ala(1-cyclohexenyl)][NMeAla(5-Cl-benzothien-3-yl)])) |
| – | – | 390 | 1490 | – | > 25000 | 112 | > 25000 | – | – | 4.74 | – | – | – | CCn1cc(C[C@H]2C(=O)N[C@@H](CC(C)C)C(=O)N(C)[C@@H](C)C(=O)O[C@H](CCC#N)C(=O)N[C@@H](CC(F)(F)F)C(=O)N(C)[C@@H](CC(C)C)C(=O)N[C@@H](CC(F)(F)F)C(=O)N2C)c2ccccc21 [C-79] (cyclo(L[NMeA][Butanoyl(2R-oxy,4-CN)][Abu(4,4,4-F3)][NMeL][Abu(4,4,4-F3)][X15])) |
| – | – | 274 | 986 | – | – | 124 | > 25000 | – | – | 4.88 | 9800 | – | – | CC#CCn1cc(C[C@H]2C(=O)N[C@@H](CC(C)C)C(=O)N(C)[C@@H](C)C(=O)O[C@H](CCC#N)C(=O)N[C@@H](CC(F)(F)F)C(=O)N(C)[C@@H](CC(C)C)C(=O)N[C@@H](CC(F)(F)F)C(=O)N2C)c2ccccc21 [C-91] (cyclo(L[NMeA][Butanoyl(2R-oxy,4-CN)][Abu(4,4,4-F3)][NMeL][Abu(4,4,4-F3)][X14])) |
| – | – | 278 | 672 | – | – | 38 | – | – | – | 3.39 | 5700 | – | 16200 | CC(C)C[C@@H]1NC(=O)[C@H](Cc2csc3ccc(Cl)cc23)N(C)C(=O)[C@H](CC(C)C)NC(=O)[C@H](CC(C)C)N(C)C(=O)[C@H](CC(C)C)NC(=O)[C@@H](CCC#N)OC(=O)[C@H](C)N(C)C1=O [C-93] (HELM PEPTIDE1{L.[meA].[N#CCC[C@@H](O[*:1])C(=O)[*:2]].L.[meL].L.[CN([C@@H](Cc1csc2ccc(Cl)cc12)C(=O)[*:2])[*:1]]}$PEPTIDE1,PEPTIDE1,1:R1-7:R2$$$V2.0) |
| – | – | 149 | 605 | – | – | 30 | > 25000 | – | – | 5.26 | 19800 | – | – | CC(C)C[C@@H]1NC(=O)[C@H](Cc2csc3ccc(Cl)cc23)N(C)C(=O)[C@H](CC(C)C)NC(=O)[C@H](CC(C)C)N(C)C(=O)[C@H](CC2=CCCCC2)NC(=O)[C@@H](CCC#N)OC(=O)[C@H](C)N(C)C1=O [C-99] (cyclo(L[NMeA][Butanoyl(2R-oxy,4-CN)][Ala(1-cyclohexenyl)][NMeL]L[NMeAla(5-Cl-benzothien-3-yl)])) |
| – | – | 813 | 3860 | – | > 25000 | 98 | > 25000 | – | – | 9.88 | – | – | – | CC(C)C[C@@H]1NC(=O)[C@H](Cc2csc3ccc(Cl)cc23)N(C)C(=O)[C@H](CC(F)(F)F)NC(=O)[C@H](CC(C)C)N(C)C(=O)[C@H](CC(C)C)NC(=O)[C@@H](CCC#N)OC(=O)[C@H](C)N(C)C1=O [C-92] (cyclo(L[NMeA][Butanoyl(2R-oxy,4-CN)]L[NMeL][Abu(4,4,4-F3)][NMeAla(5-Cl-benzothien-3-yl)])) |
